Experimental data as given in patent publication US11371097B2, “Articles for diagnosis of liver fibrosis” (THE GOVERNMENT OF THE UNITED STATES, as represented by THE …, priority 2015, dated 2022).
Several values for one entry are separate records, joined by “and”; a condition that tells them apart may be missing. Equal entries are not always repeated.

Assays:
Tgfb1 = assay: qPCR of liver RNA: Tgfb1; format: in vivo, Male Sprague-Dawley rats; conditions: liver, across dose groups, vs control
Protocol: Working on dry ice, a portion (−10 mg) of flash-frozen liver was cut from each sample and transferred to a clean, labeled tube. Total RNA was then isolated using Qiagen's miRNeasy 96 kit (Qiagen, Valencia, Calif.) following manufacturer's instructions with a final elution volume of −150 μL (2×75 μL). The quality and quantity of RNA samples were evaluated with a 2100 Bioanalyzer (Agilent Technologies, Santa Clara, Calif.), using the Agilent RNA 6000 Nano Reagents and a multiwell NanoDrop 8000 spectrophotometer (Thermo Fisher Scientific, Waltham, Mass.).
Using 1 μg RNA input, cDNA was generated using a QuantiTect Reverse Transcription kit (Qiagen, Valencia, Calif.) following manufacturer's instructions. Applied Biosystems SYBR Green Master Mix was used in a 20 μL qPCR reaction with 2 μL of cDNA template and a 2.tM final concentration of each primer. A total of five genes were targeted (Gapdh, Actb, Timp1, Tgfbl, and Psma5), two of which served as the endogenous controls (Gapdh and Actb). An Applied Biosystems 7500 Real-Time PCR System (Applied Biosystems, Foster City, Calif.) was used for thermal cycling and fluorescence detection using the default settings for Quantitation-Comparative CT with SYBR® . . . Green Reagents which uses the following scheme: 95° C. for 10 minutes followed by 40 cycles of: 95° C. for 15 seconds, 60° C. for 1 minute, and a fluorescence signal read. Al! primers were obtained from Integrated DNA Technology's PrimeTime qPCR primer library (Integrated DNA Technologies, Coralville, Iowa).
Data was imported into GraphPad Prism (GraphPad Software, Inc.; LaJolla, Calif.) for analysis. A nonparametric Kruskal-Wallis analysis of variance by ranks with post hoc […] multiple comparison test was used to determine statistical difference among dose groups. A one sample t-test compared to a theoretical mean of 1.0 fold change was used to determine difference from control for each dose group. A p-value<0.05 was used as a cutoff for statistical significance.

[1] = tested on: 67 genes on the fibrosis gene panel; assay: Multiplexed fibrosis gene panel (QuantiGene 2.0 Plex / Bioplex) on liver RNA
[2] = Carbon Tetrachloride 200 mg/kg, animal 54
[3] = liver RNA, individual animals, Carbon Tetrachloride 200, Bromobenzene 785, Dexamethasone 1 mg/kg

ClC(Cl)(Cl)Cl [carbon tetrachloride]
Tgfb1 gene expression by qPCR (Tgfb1): insignificant
Tgfb1 gene expression by qPCR (Tgfb1; listed as Carbon tetrachloride): not significantly upregulated at any dose
A2m differential expression [1, 2]: −3.423
Arf6 differential expression [1, 2]: 0.270
Cxcl1 differential expression [1, 2]: 0.190
RT1-DMa differential expression [1, 2]: 0.225
Differential Expression of A2m [1, 3]: −2.891 and −2.439 and −5.167
Differential Expression of Angptl3 [1, 3]: −0.612 and −1.071 and −0.753 and −0.775
Differential Expression of Anxa2 [1, 3]: 0.553 and 0.586 and 0.834 and 0.587
Differential Expression of Apoc [1, 3]: −0.311 and −0.356 and −0.337 and −0.414
Differential Expression of Arf6 [1, 3]: 0.172 and 0.167 and 0.214
Differential Expression of Arpc1b [1, 3]: 1.102 and 1.145 and 1.554 and 1.382
Differential Expression of Arrb1 [1, 3]: 1.846 and 2.288 and 2.226 and 1.692
Differential Expression of C1qb [1, 3]: 0.268 and 0.290 and 0.085 and 0.332
Differential Expression of CD9 [1, 3]: −0.279 and −0.103 and 0.754 and −0.347
Differential Expression of CD53 [1, 3]: 0.486 and 1.094 and 1.315 and 1.262
Differential Expression of CP [1, 3]: −0.227 and −0.328 and −0.317 and −0.414
Differential Expression of Capg [1, 3]: 0.433 and 0.855 and 0.909 and 0.968
Differential Expression of Ccl2 [1, 3]: 1.671 and 1.662 and 2.378 and 1.370
Differential Expression of Col1a1 [1, 3]: 1.336 and 1.411 and 1.309 and 1.774
Differential Expression of Col1a2 [1, 3]: 0.249 and 0.458 and 0.329 and 0.672
Differential Expression of Col4a1 [1, 3]: −0.521 and −0.024 and −0.441 and 0.104
Differential Expression of Col5a2 [1, 3]: 1.411 and 2.330 and 2.442 and 2.138
Differential Expression of Ctgf [1, 3]: 2.135 and 2.232 and 2.664 and 1.663
Differential Expression of Cxcl1 [1, 3]: −0.500 and −0.165 and −0.462
Differential Expression of Cxcl12 [1, 3]: 0.040 and 0.320 and 0.041 and 0.403
Differential Expression of Cxcl16 [1, 3]: 1.440 and 1.782 and 1.992 and 1.656
Differential Expression of Cyba [1, 3]: 0.522 and 0.799 and 0.888 and 0.887
Differential Expression of Cyp2c11 [1, 3]: −1.357 and −3.301 and −0.339 and −0.904
Differential Expression of Dsc2 [1, 3]: 0.091 and −0.280 and −0.204 and −0.265
Differential Expression of Fam102b [1, 3]: −0.378 and −0.140 and −0.011 and −0.240
Differential Expression of Fam105a [1, 3]: 0.309 and 0.576 and 0.985 and 0.758
Differential Expression of Fbn1 [1, 3]: −0.149 and 0.230 and −0.294 and 0.107
Differential Expression of Fn1 [1, 3]: −0.120 and −0.152 and −0.364 and −0.262
Differential Expression of Fstl1 [1, 3]: −0.259 and 0.017 and −0.180 and 0.025
Differential Expression of Fxyd5 [1, 3]: 0.160 and 0.404 and 0.507 and 0.213
Differential Expression of Gpnmb [1, 3]: 1.494 and 2.232 and 3.101 and 2.714
Differential Expression of Igfals [1, 3]: −0.528 and −0.092 and −0.771 and −0.189
Differential Expression of Igfbp1 [1, 3]: 0.019 and 0.070 and 0.480 and −0.925
Differential Expression of Igfbp2 [1, 3]: −0.542 and 1.416 and 0.505 and −1.839
Differential Expression of Igfbp3 [1, 3]: −0.324 and 0.063 and −0.304 and −0.113
Differential Expression of Itga1 [1, 3]: 0.220 and 0.585 and 0.503 and 0.756
Differential Expression of Itgb2 [1, 3]: −0.115 and 0.502 and 0.455 and 0.302
Differential Expression of Lame2 [1, 3]: 2.323 and 2.130 and 2.338 and 1.341
Differential Expression of Lbp [1, 3]: 0.594 and 0.379 and 0.665 and 0.050
Differential Expression of Len2 [1, 3]: −1.654 and 0.356 and 1.528 and 2.126
Differential Expression of Lgals1 [1, 3]: 0.936 and 0.978 and 1.986 and 1.602
Differential Expression of Lgals3 [1, 3]: 0.994 and 1.444 and 2.024 and 1.736
Differential Expression of Lgals3bp [1, 3]: 0.391 and 0.486 and 0.360 and 0.302
Differential Expression of Lox [1, 3]: −0.215 and −0.493 and 0.022 and 0.077
Differential Expression of Lrp1 [1, 3]: −0.329 and −0.337 and −0.524 and −0.671
Differential Expression of Lum [1, 3]: 0.298 and −0.201 and 0.404 and 0.442
Differential Expression of Mmp2 [1, 3]: −0.062 and 0.311 and 0.610 and −0.241
Differential Expression of Nid1 [1, 3]: −0.021 and 0.232 and 0.186 and 0.154
Differential Expression of Pcolce [1, 3]: 0.002 and 0.354 and 0.651 and −0.401
Differential Expression of Pkm2 [1, 3]: 0.077 and 0.586 and 0.642 and 0.663
Differential Expression of Plat [1, 3]: −0.025 and −0.411 and −0.289 and −0.385
Differential Expression of Plau [1, 3]: 0.039 and 0.765 and 0.947 and 0.720
Differential Expression of Plod2 [1, 3]: −0.129 and −0.357 and −0.045 and −0.258
Differential Expression of RT1-DMa [1, 3]: 0.711 and 0.673 and 1.089
Differential Expression of RT1-Da [1, 3]: 0.559 and 0.918 and 1.213 and 1.280
Differential Expression of S100A6 [1, 3]: −0.079 and −0.686 and 0.408 and −0.019
Differential Expression of S100A11 [1, 3]: 0.119 and 0.421 and 0.731 and 0.599
Differential Expression of Serpine1 [1, 3]: 0.309 and −0.345 and 0.467 and −0.524
Differential Expression of Serping1 [1, 3]: −0.712 and −0.714 and −0.546 and −0.514
Differential Expression of Slc25a24 [1, 3]: −0.245 and −0.511 and −0.262 and −0.615
Differential Expression of Sod2 [1, 3]: 0.022 and 0.009 and −0.014 and −0.116
Differential Expression of TagIn2 [1, 3]: 0.218 and 0.282 and 0.110 and 0.153
Differential Expression of Tgfb1 [1, 3]: −0.322 and 0.107 and −0.102 and −0.395
Differential Expression of Timp1 [1, 3]: 0.939 and 1.200 and 1.645 and 1.241
Differential Expression of Vhl [1, 3]: 2.369 and 2.626 and 2.628 and 2.130
Differential Expression of Vim [1, 3]: 0.044 and 0.004 and 0.348 and 0.360
Differential Expression of Vtn [1, 3]: −0.291 and −0.381 and −0.494 and −0.473
Panel gene expression relative to other chemical-dose groups ([1]; liver, 67-gene panel): mid-way between fibrosis-positive chemical-dose groups and non-fibrogenic chemical-dose groups
Hierarchical biclustering of log2 fold-changes in panel gene expression ([1]; liver, 67 genes): clustered mid-way between non-fibrogenic and fibrogenic doses of the other fibrogenic chemicals
